Test results from patent US11192867B2, “Microbiocidal oxadiazole derivatives” (SYNGENTA PARTICIPATIONS AG, priority 2016, dated 2021).

How the values were obtained:
[1] = test system: Puccinia recondita f. sp. Tritici; experiment: Fungicidal activity against Puccinia recondita f. sp. Tritici / wheat / leaf disc preventative (brown rust); format: in vivo; conditions: foliar, 200 ppm in the applied formulation, wheat leaf segments cv. Kanzler, inoculated 1 day after application, vs untreated control, read-out: disease control
Procedure: Leaf disks or leaf segments of various plant species are cut from plants grown in a greenhouse. The cut leaf disks or segments are placed in multiwell plates (24-well format) onto water agar. The leaf disks are sprayed with a test solution before (preventative) or after (curative) inoculation. Compounds to be tested are prepared as DMSO solutions (max. 10 mg/ml) which are diluted to the appropriate concentration with 0.025% Tween20 just before spraying. The inoculated leaf disks or segments are incubated under defined conditions (temperature, relative humidity, light, etc.) according to the respective test system. A single evaluation of disease level is carried out 3 to 14 days after inoculation, depending on the pathosystem. Percent disease control relative to the untreated check leaf disks or segments is then calculated. Wheat leaf segments cv. Kanzler were placed on agar in multiwell plates (24-well format) and sprayed with the formulated test compound diluted in water. The leaf disks were inoculated with a spore suspension of the fungus 1 day after application. The inoculated leaf segments were incubated at 19° C. and 75% relative humidity (rh) under a light regime of 12 hours light/12 hours darkness in a climate cabinet and the activity of a compound was assessed as percent disease control compared to untreated when an appropriate level of disease damage appears in untreated check leaf segments (7 to 9 days after application). The following compounds at 200 ppm in the applied formulation give at least 80% disease control in this test when compared to untreated control leaf disks under the same conditions, which show extensive disease development.

[2] = test system: Glomerella lagenarium (Colletotrichum lagenarium); experiment: Fungicidal activity against Glomerella lagenarium (Colletotrichum lagenarium) liquid culture / cucumber / preventative (anthracnose); format: cell-based; conditions: Colletotrichum orbiculare, 72 h; 20 ppm in the applied formulation; liquid culture (PDB), growth inhibition measured photometrically 3 to 4 days after application; vs untreated control; read-out: disease control
Procedure: Mycelia fragments or conidia suspensions of a fungus prepared either freshly from liquid cultures of the fungus or from cryogenic storage, are directly mixed into nutrient broth. DMSO solutions of the test compound (max. 10 mg/ml) are diluted with 0.025% Tween20 by a factor of 50 and 10 μl of this solution is pipetted into a microtiter plate (96-well format). The nutrient broth containing the fungal spores/mycelia fragments is then added to give an end concentration of the tested compound. The test plates are incubated in the dark at 24° C. and 96% relative humidity. The inhibition of fungal growth is determined photometrically after 2 to 7 days, depending on the pathosystem, and percent antifungal activity relative to the untreated check is calculated.
Conidia of the fungus from cryogenic storage are directly mixed into nutrient broth (PDB—potato dextrose broth). After placing a (DMSO) solution of test compound into a microtiter plate (96-well format), the nutrient broth containing the fungal spores is added. The test plates are incubated at 24° C. and the inhibition of growth is measured photometrically 3 to 4 days after application.
The following compounds at 20 ppm in the applied formulation give at least 80% disease control in this test when compared to untreated control under the same conditions, which show extensive disease development.

Phakopsora pachyrhizi = experiment: Fungicidal activity against Phakopsora pachyrhizi / soybean / leaf disc preventative (Asian soybean rust); format: in vivo; conditions: foliar, 200 ppm in the applied formulation, soybean leaf disks, vs untreated control, read-out: disease control
Procedure: Leaf disks or leaf segments of various plant species are cut from plants grown in a greenhouse. The cut leaf disks or segments are placed in multiwell plates (24-well format) onto water agar. The leaf disks are sprayed with a test solution before (preventative) or after (curative) inoculation. Compounds to be tested are prepared as DMSO solutions (max. 10 mg/ml) which are diluted to the appropriate concentration with 0.025% Tween20 just before spraying. The inoculated leaf disks or segments are incubated under defined conditions (temperature, relative humidity, light, etc.) according to the respective test system. A single evaluation of disease level is carried out 3 to 14 days after inoculation, depending on the pathosystem. Percent disease control relative to the untreated check leaf disks or segments is then calculated. Soybean leaf disks are placed on water agar in multiwell plates (24-well format) and sprayed with the formulated test compound diluted in water. One day after application leaf discs are inoculated by spraying a spore suspension on the lower leaf surface. After an incubation period in a climate cabinet of 24-36 hours in darkness at 20° C. and 75% rh leaf disc are kept at 20° C. with 12 hours light/12 hours and 75% rh. The activity of a compound is assessed as percent disease control compared to untreated when an appropriate level of disease damage appears in untreated check leaf disks (12 to 14 days after application). The following compounds at 200 ppm in the applied formulation give at least 80% disease control in this test when compared to untreated control leaf disks under the same conditions, which show extensive disease development.

Row | SMILES | pest or weed control at 200 ppm [1] [%] | inhibition of growth at 20 ppm [2] [%] | pest or weed control at 200 ppm (Phakopsora pachyrhizi) [%]
1 | COC(=O)Cc1ccccc1CON=CC(C)NC(=O)c1ccc(-c2noc(C(F)(F)F)n2)cc1 (stereo not shown) [Compound 1.49, methyl 2-[2-[[2-[[4-[5-(trifluoromethyl)-1,2,4-oxadiazol-3-yl]benzoyl]amino]propylideneamino]oxymethyl]phenyl]acetate] | ≥ 80 | ≥ 80 | 
2 | CC(CNC(=O)c1ccc(-c2noc(C(F)(F)F)n2)cc1)=NOCC=CCl [Compound 1.121, N-[2-(3-chloroallyloxy-imino)propyl]-4-[5-(trifluoromethyl)-1,2,4-oxadiazol-3-yl]benzamide] | ≥ 80 | ≥ 80 | ≥ 80
3 | O=C(NCC=NOCc1ccc(F)cc1Cl)c1ccc(-c2noc(C(F)(F)F)n2)cc1 [Compound 1.71, N-[2-[(2-chloro-4-fluoro-phenyl)methoxy-imino]ethyl]-4-[5-(trifluoromethyl)-1,2,4-oxadiazol-3-yl]benzamide] | ≥ 80 | ≥ 80 | ≥ 80
4 | COc1ccccc1CON=CCNC(=O)c1ccc(-c2noc(C(F)(F)F)n2)cc1 [Compound 1.68, N-[2-[(2-methoxyphenyl)methoxyimino]ethyl]-4-[5-(trifluoromethyl)-1,2,4-oxadiazol-3-yl]benzamide] | ≥ 80 | ≥ 80 | ≥ 80
5 | CC(C=NOCc1ccccc1CC(=O)O)NC(=O)c1ccc(-c2noc(C(F)(F)F)n2)cc1 (stereo not shown) [Compound 1.48, 2-[2-[[2-[[4-[5-(trifluoromethyl)-1,2,4-oxadiazol-3-yl]benzoyl]amino]propylideneamino]oxymethyl]phenyl] acetic acid] | ≥ 80 | ≥ 80 | ≥ 80
6 | CC(CNC(=O)c1ccc(-c2noc(C(F)(F)F)n2)cc1)=NOCC(=O)O [Compound 1.109, 2-[[1-methyl-2-[[4-[5-(trifluoromethyl)-1,2,4-oxadiazol-3-yl]benzoyl]amino]ethylidene]amino] oxyacetic acid] | ≥ 80 | ≥ 80 | 
7 | O=C(O)Cc1ccccc1CON=CCNC(=O)c1ccc(-c2noc(C(F)(F)F)n2)cc1 [Compound 1.92, 2-[2-[[2-[[4-[5-(trifluoromethyl)-1,2,4-oxadiazol-3-yl]benzoyl]amino]ethylideneamino]oxymethyl]phenyl] acetic acid] | ≥ 80 | ≥ 80 | ≥ 80
8 | CC(CNC(=O)c1ccc(-c2noc(C(F)(F)F)n2)cc1)=NOCC=C(Cl)Cl [Compound 1.122, N-[2-(3,3-dichloroallyloxy-imino)propyl]-4-[5-(trifluoromethyl)-1,2,4-oxadiazol-3-yl]benzamide] | ≥ 80 | ≥ 80 | ≥ 80
9 | O=C(NCC=NOCc1ccc([N+](=O)[O-])cc1)c1ccc(-c2noc(C(F)(F)F)n2)cc1 [Compound 1.61, N-[2-[(4-nitrophenyl)methoxyimino]ethyl]-4-[5-(trifluoromethyl)-1,2,4-oxadiazol-3-yl]benzamide] | ≥ 80 |  | ≥ 80
10 | CC(CNC(=O)c1ccc(-c2noc(C(F)(F)F)n2)cc1)=NOCc1ccccc1CC(=O)O [Compound 1.136, 2-[2-[[[1-methyl-2-[[4-[5-(trifluoromethyl)-1,2,4-oxadiazol-3-yl]benzoyl]amino]ethylidene]amino]oxymethyl]phenyl]acetic acid] | ≥ 80 | ≥ 80 | 
11 | COc1cccc(CON=C(C)CNC(=O)c2ccc(-c3noc(C(F)(F)F)n3)cc2)c1 [Compound 1.106, N-[2-[(3-methoxyphenyl)methoxyimino]propyl]-4-[5-(trifluoromethyl)-1,2,4-oxadiazol-3-yl]benzamide] | ≥ 80 | ≥ 80 | 
